According to PMC9848257, “Design and synthesis of novel rigid dibenzo[b,f]azepines through ring closure technique as promising anticancer candidates against leukaemia and acting as selective topoisomerase II inhibitors and DNA intercalators” (Journal of Enzyme Inhibition and Medicinal Chemistry, 2023):

Key:
CCRF-CEM = experiment: NCI-60 one-dose screen, CCRF-CEM; format: cell-based; conditions: Homo sapiens, leukaemia, single dose 10 μM, read-out: Growth inhibition %
Description: (§1) Anti-proliferative effects of the counterparts 4a–g and 5a–g were screened against 60 human cancer cell lines, following the Developmental Therapeutics Program protocol, National Cancer Institute[35].
(§2) The anti-tumour activity of the fourteen synthesised congeners was investigated at the NCI against a panel of 60 cancer cell lines (NCI-60 Cell One-Dose Screen). The tested dibenzo[b,f]azepine derivatives were screened at a single dose level (10 μM), Table 1.

HL-60(TB) = experiment: NCI-60 one-dose screen, HL-60(TB); format: cell-based; conditions: Homo sapiens, leukaemia, single dose 10 μM, read-out: Growth inhibition %
Description: as §1, §2

K-562 = experiment: NCI-60 one-dose screen, K-562; format: cell-based; conditions: Homo sapiens, K562; K-562, leukaemia; single dose 10 μM; read-out: Growth inhibition %
Description: as §1, §2

MOLT-4 = experiment: NCI-60 one-dose screen, MOLT-4; format: cell-based; conditions: Homo sapiens; MOLT-4, leukaemia; single dose 10 μM; read-out: Growth inhibition %
Description: as §1, §2

EKVX = experiment: NCI-60 one-dose screen, EKVX; format: cell-based; conditions: Homo sapiens, non-small cell lung cancer, single dose 10 μM, read-out: Growth inhibition %
Description: as §1, §2

HOP-62 = experiment: NCI-60 one-dose screen, HOP-62; format: cell-based; conditions: Homo sapiens; HOP-62, non-small cell lung cancer; single dose 10 μM; read-out: Growth inhibition %
Description: as §1, §2

HOP-92 = experiment: NCI-60 one-dose screen, HOP-92; format: cell-based; conditions: Homo sapiens; HOP-92, non-small cell lung cancer; single dose 10 μM; read-out: Growth inhibition %
Description: as §1, §2

NCI-H23 = experiment: NCI-60 one-dose screen, NCI-H23; format: cell-based; conditions: Homo sapiens; NCI-H23, non-small cell lung cancer; single dose 10 μM; read-out: Growth inhibition %
Description: as §1, §2

NCI-H322M = experiment: NCI-60 one-dose screen, NCI-H322M; format: cell-based; conditions: Homo sapiens, non-small cell lung cancer, single dose 10 μM, read-out: Growth inhibition %
Description: as §1, §2

NCI-H460 = experiment: NCI-60 one-dose screen, NCI-H460; format: cell-based; conditions: Homo sapiens; NCI-H460, non-small cell lung cancer; single dose 10 μM; read-out: Growth inhibition %
Description: as §1, §2

NCI-H522 = experiment: NCI-60 one-dose screen, NCI-H522; format: cell-based; conditions: Homo sapiens; NCI-H522, non-small cell lung cancer; single dose 10 μM; read-out: Growth inhibition %
Description: as §1, §2

COLO 205 = experiment: NCI-60 one-dose screen, COLO 205; format: cell-based; conditions: Homo sapiens; COLO 205, colon cancer; single dose 10 μM; read-out: Growth inhibition %
Description: as §1, §2

HCT-15 = experiment: NCI-60 one-dose screen, HCT-15; format: cell-based; conditions: Homo sapiens; HCT-15, colon cancer; single dose 10 μM; read-out: Growth inhibition %
Description: as §1, §2

SF-295 = experiment: NCI-60 one-dose screen, SF-295; format: cell-based; conditions: Homo sapiens; SF-295, CNS cancer; single dose 10 μM; read-out: Growth inhibition %
Description: as §1, §2

SF-539 = experiment: NCI-60 one-dose screen, SF-539; format: cell-based; conditions: Homo sapiens; SF-539, CNS cancer; single dose 10 μM; read-out: Growth inhibition %
Description: as §1, §2

U251 = experiment: NCI-60 one-dose screen, U251; format: cell-based; conditions: Homo sapiens, U-251; U251, CNS cancer; single dose 10 μM; read-out: Growth inhibition %
Description: as §1, §2

LOX IMVI = experiment: NCI-60 one-dose screen, LOX IMVI; format: cell-based; conditions: Homo sapiens, melanoma, single dose 10 μM, read-out: Growth inhibition %
Description: as §1, §2

M14 = experiment: NCI-60 one-dose screen, M14; format: cell-based; conditions: Homo sapiens; M14, melanoma; single dose 10 μM; read-out: Growth inhibition %
Description: as §1, §2

SK-MEL-5 = experiment: NCI-60 one-dose screen, SK-MEL-5; format: cell-based; conditions: Homo sapiens; SK-MEL-5, melanoma; single dose 10 μM; read-out: Growth inhibition %
Description: as §1, §2

UACC-257 = experiment: NCI-60 one-dose screen, UACC-257; format: cell-based; conditions: Homo sapiens; UACC-257, melanoma; single dose 10 μM; read-out: Growth inhibition %
Description: as §1, §2

UACC-62 = experiment: NCI-60 one-dose screen, UACC-62; format: cell-based; conditions: Homo sapiens; UACC-62, melanoma; single dose 10 μM; read-out: Growth inhibition %
Description: as §1, §2

OVCAR-5 = experiment: NCI-60 one-dose screen, OVCAR-5; format: cell-based; conditions: Homo sapiens; OVCAR-5, ovarian cancer; single dose 10 μM; read-out: Growth inhibition %
Description: as §1, §2

OVCAR-8 = experiment: NCI-60 one-dose screen, OVCAR-8; format: cell-based; conditions: Homo sapiens; OVCAR-8, ovarian cancer; single dose 10 μM; read-out: Growth inhibition %
Description: as §1, §2

786-0 = experiment: NCI-60 one-dose screen, 786-0; format: cell-based; conditions: Homo sapiens; 786-0, renal cancer; single dose 10 μM; read-out: Growth inhibition %
Description: as §1, §2

A498 = experiment: NCI-60 one-dose screen, A498; format: cell-based; conditions: Homo sapiens; A498, renal cancer; single dose 10 μM; read-out: Growth inhibition %
Description: as §1, §2

ACHN = experiment: NCI-60 one-dose screen, ACHN; format: cell-based; conditions: Homo sapiens, renal cancer, single dose 10 μM, read-out: Growth inhibition %
Description: as §1, §2

RXF 393 = experiment: NCI-60 one-dose screen, RXF 393; format: cell-based; conditions: Homo sapiens; RXF 393, renal cancer; single dose 10 μM; read-out: Growth inhibition %
Description: as §1, §2

SN12C = experiment: NCI-60 one-dose screen, SN12C; format: cell-based; conditions: Homo sapiens, renal cancer, single dose 10 μM, read-out: Growth inhibition %
Description: as §1, §2

PC-3 = experiment: NCI-60 one-dose screen, PC-3; format: cell-based; conditions: Homo sapiens; PC-3, prostate cancer; single dose 10 μM; read-out: Growth inhibition %
Description: as §1, §2

MCF-7 = experiment: NCI-60 one-dose screen, MCF-7; format: cell-based; conditions: Homo sapiens, MCF7; MCF-7, breast cancer; single dose 10 μM; read-out: Growth inhibition %
Description: as §1, §2

MDA-MB-231-ATCC = experiment: NCI-60 one-dose screen, MDA-MB-231-ATCC; format: cell-based; conditions: Homo sapiens, breast cancer, single dose 10 μM, read-out: Growth inhibition %
Description: as §1, §2

HS 578 T = experiment: NCI-60 one-dose screen, HS 578 T; format: cell-based; conditions: Homo sapiens, breast cancer, single dose 10 μM, read-out: Growth inhibition %
Description: as §1, §2

T-47D = experiment: NCI-60 one-dose screen, T-47D; format: cell-based; conditions: Homo sapiens, T47D, breast cancer, single dose 10 μM, read-out: Growth inhibition %
Description: as §1, §2

MDA-MB-468 = experiment: NCI-60 one-dose screen, MDA-MB-468; format: cell-based; conditions: Homo sapiens; MDA-MB-468, breast cancer; single dose 10 μM; read-out: Growth inhibition %
Description: as §1, §2

SMILES: Cc1ccc(-c2nnc(N3c4ccccc4C=Cc4ccccc43)o2)cc1 [Compound 5d, 2-(5 h-Dibenzo[b,f]azepin-5-yl)-5-(p-tolyl)-1,3,4-oxadiazole]
- inhibition at 10 µM (CCRF-CEM): 26.6%
- inhibition at 10 µM (HL-60(TB)): 33.8%
- inhibition at 10 µM (K-562): 47.8%
- inhibition at 10 µM (MOLT-4): 21%
- inhibition at 10 µM (EKVX): < 10%
- inhibition at 10 µM (HOP-62): < 10%
- inhibition at 10 µM (HOP-92): 14.3%
- inhibition at 10 µM (NCI-H23): < 10%
- inhibition at 10 µM (NCI-H322M): < 10%
- inhibition at 10 µM (NCI-H460): 58.6%
- inhibition at 10 µM (NCI-H522): 17.1%
- inhibition at 10 µM (COLO 205): 19.4%
- inhibition at 10 µM (HCT-15): 61.1%
- inhibition at 10 µM (SF-295): 22%
- inhibition at 10 µM (SF-539): < 10%
- inhibition at 10 µM (U251): 31.8%
- inhibition at 10 µM (LOX IMVI): 25.6%
- inhibition at 10 µM (M14): < 10%
- inhibition at 10 µM (SK-MEL-5): 34.6%
- inhibition at 10 µM (UACC-257): < 10%
- inhibition at 10 µM (UACC-62): 20.9%
- inhibition at 10 µM (OVCAR-5): < 10%
- inhibition at 10 µM (OVCAR-8): 11.5%
- inhibition at 10 µM (786-0): < 10%
- inhibition at 10 µM (A498): < 10%
- inhibition at 10 µM (ACHN): < 10%
- inhibition at 10 µM (RXF 393): < 10%
- inhibition at 10 µM (SN12C): < 10%
- inhibition at 10 µM (PC-3): 41.4%
- inhibition at 10 µM (MCF-7): 15.7%
- inhibition at 10 µM (MDA-MB-231-ATCC): 9.21%
- inhibition at 10 µM (HS 578 T): 13.2%
- inhibition at 10 µM (T-47D): < 10%
- inhibition at 10 µM (MDA-MB-468): < 10%
- melting point: 239 to 241 °C

SMILES: O=C(NNC(=O)N1c2ccccc2C=Cc2ccccc21)c1ccc2ccccc2c1 [Compound 4f, N′-(2-Naphthoyl)-5H-dibenzo[b,f]azepine-5-carbohydrazide]
- inhibition at 10 µM (CCRF-CEM): < 10%
- inhibition at 10 µM (HL-60(TB)): 10%
- inhibition at 10 µM (K-562): 12.8%
- inhibition at 10 µM (MOLT-4): < 10%
- inhibition at 10 µM (EKVX): 11%
- inhibition at 10 µM (HOP-62): < 10%
- inhibition at 10 µM (HOP-92): 18.6%
- inhibition at 10 µM (NCI-H23): < 10%
- inhibition at 10 µM (NCI-H322M): < 10%
- inhibition at 10 µM (NCI-H460): < 10%
- inhibition at 10 µM (NCI-H522): 14.1%
- inhibition at 10 µM (COLO 205): < 10%
- inhibition at 10 µM (HCT-15): < 10%
- inhibition at 10 µM (SF-295): < 10%
- inhibition at 10 µM (SF-539): < 10%
- inhibition at 10 µM (U251): < 10%
- inhibition at 10 µM (LOX IMVI): < 10%
- inhibition at 10 µM (M14): < 10%
- inhibition at 10 µM (SK-MEL-5): < 10%
- inhibition at 10 µM (UACC-257): < 10%
- inhibition at 10 µM (UACC-62): 18.9%
- inhibition at 10 µM (OVCAR-5): < 10%
- inhibition at 10 µM (OVCAR-8): < 10%
- inhibition at 10 µM (786-0): < 10%
- inhibition at 10 µM (A498): < 10%
- inhibition at 10 µM (ACHN): < 10%
- inhibition at 10 µM (RXF 393): < 10%
- inhibition at 10 µM (SN12C): < 10%
- inhibition at 10 µM (PC-3): 25.1%
- inhibition at 10 µM (MCF-7): 14%
- inhibition at 10 µM (MDA-MB-231-ATCC): < 10%
- inhibition at 10 µM (HS 578 T): < 10%
- inhibition at 10 µM (T-47D): 12.6%
- inhibition at 10 µM (MDA-MB-468): 12.3%
- melting point: 243 to 245 °C
